According to patent EP0562575B1, “N-substituted-3-(substituted hydrazino)-benzenesulfonamide derivative, preparation process thereof, and herbicidal compositions” (KUREHA KAGAKU KOGYO KABUSHIKI KAISHA, priority 1992, dated 1993):
Like-named read-outs stand apart in the source and are kept apart here.

Key:
Type in all cases: in vivo
Amaranthus retroflexus [1] = assay: Germination test of seeds (Petri dish); conditions: A.r., seeds in Petri dish, 28 °C, 14 days
Procedure: (§1) Two sheets of filter paper were placed in a superposed relation in each of Petri dishes having a diameter of 9 cm. Water suspensions of each test compound (concentrations of the active ingredient: 0.25 ppm and 2.5 ppm) were separately poured in an amount of 6ml per dish into the Petri dishes. Seeds of Amaranthus retroflexus, (Redroot pigweed), Bidens pilosa (Common blackjack), Matricaria chamomilla (Wild chamomile), Solanum nigrum (Black nightshade), Echinochloa crus-galli(Barnyard grass), Cyperus iria (Rice flatsedge) and Setaria viridis (Green foxtail) were placed at a rate of 10 seeds per dish in the Petri dishes. They were thereafter allowed to germinate in a constant-temperature chamber at 28 °C. Fourteen days later after placement in the Petri dishes, the degrees of germination and growth inhibition were observed visually. The observation results were ranked in accordance with the below-described 6-stage system.

Bidens pilosa [2] = assay: Germination test of seeds (Petri dish); conditions: B.p., seeds in Petri dish, 28 °C, 14 days
Procedure: as §1

Cyperus iria = assay: Germination test of seeds (Petri dish); conditions: C.i., seeds in Petri dish, 28 °C, 14 days
Procedure: as §1

Echinochloa crus-galli = assay: Germination test of seeds (Petri dish); conditions: E.c., seeds in Petri dish, 28 °C, 14 days
Procedure: as §1

Matricaria chamomilla [3] = assay: Germination test of seeds (Petri dish); conditions: M.c., seeds in Petri dish, 28 °C, 14 days
Procedure: as §1

Setaria viridis [4] = assay: Germination test of seeds (Petri dish); conditions: S.v., seeds in Petri dish, 28 °C, 14 days
Procedure: as §1

Solanum nigrum [5] = assay: Germination test of seeds (Petri dish); conditions: S.n., seeds in Petri dish, 28 °C, 14 days
Procedure: as §1

Abutilon theophrasti = assay: Test on herbicidal activity by foliar application; conditions: A.t; 50 g/ha foliar spray, 2 - 4 leaf stage, 14 days
Source text: (§2) Herbicidal solutions of each test compound, which had been prepared by dissolving at predetermined concentrations such as wettable powder of the test compound as that described in the above formulation example, and sprayed at dosages of 5 g/ha and 50 g/ha over foliar parts of Amaranthus retroflexus, (Redroot pigweed), Bidens pilosa (Common blackjack), Sinapis arvensis (Wild mustard), Stellaria media (Common chickweed), Cassia obtusifolia (Sicklepod), Solanum nigrum (Black nightshade), Abutilon theophrasti (Velvetleaf), Convolvulus arvensis (Field bindweed), Matricaria chamomilla (Wild chamomile), Setaria viridis (Green foxtail), Echinochloa frumentaceum (Barnyard grass), Avena fatua (Wild oat), and Digitaria adscendens (Henry crabgrass) which had been allowed to grow individually to 2 - 4 leaf stage in pots. Fourteen days later after spraying of the test compound, its herbicidal acrivity was evaluated in accordance with the below-described system.
(§3) 0: no effects 1: less than 30% of total kill 2: 31 - 50% of total kill 3: 51 - 70% of total kill 4: 71 - 90% of total kill 5: 91 - 100% of total kill.

Amaranthus retroflexus [6] = assay: Test on herbicidal activity by foliar application; conditions: A.r; 50 g/ha foliar spray, 2 - 4 leaf stage, 14 days
Source text: as §2, §3

Avena fatua = assay: Test on herbicidal activity by foliar application; conditions: A.f.; 50 g/ha foliar spray, 2 - 4 leaf stage, 14 days
Source text: as §2, §3

Bidens pilosa [7] = assay: Test on herbicidal activity by foliar application; conditions: B.p; 50 g/ha foliar spray, 2 - 4 leaf stage, 14 days
Source text: as §2, §3

Cassia obtusifolia = assay: Test on herbicidal activity by foliar application; conditions: C.o.; 50 g/ha foliar spray, 2 - 4 leaf stage, 14 days
Source text: as §2, §3

Convolvulus arvensis = assay: Test on herbicidal activity by foliar application; conditions: C.a.; 50 g/ha foliar spray, 2 - 4 leaf stage, 14 days
Source text: as §2, §3

Digitaria adscendens = assay: Test on herbicidal activity by foliar application; conditions: D.a.; 50 g/ha foliar spray, 2 - 4 leaf stage, 14 days
Source text: as §2, §3

Echinochloa frumentaceum = assay: Test on herbicidal activity by foliar application; conditions: E.f.; 50 g/ha foliar spray, 2 - 4 leaf stage, 14 days
Source text: as §2, §3

Matricaria chamomilla [8] = assay: Test on herbicidal activity by foliar application; conditions: M.c; 50 g/ha foliar spray, 2 - 4 leaf stage, 14 days
Source text: as §2, §3

Setaria viridis [9] = assay: Test on herbicidal activity by foliar application; conditions: S.v.; 50 g/ha foliar spray, 2 - 4 leaf stage, 14 days
Source text: as §2, §3

Sinapis arvensis = assay: Test on herbicidal activity by foliar application; conditions: S.a.; 50 g/ha foliar spray, 2 - 4 leaf stage, 14 days
Source text: as §2, §3

Solanum nigrum [10] = assay: Test on herbicidal activity by foliar application; conditions: S.n; 50 g/ha foliar spray, 2 - 4 leaf stage, 14 days
Source text: as §2, §3

Stellaria media = assay: Test on herbicidal activity by foliar application; conditions: S.m.; 50 g/ha foliar spray, 2 - 4 leaf stage, 14 days
Source text: as §2, §3

Galium aparine = assay: Test for selective herbicidal effect in post-emergence by treatment of stalks and leaves; conditions: 1 - to 2 - leaf stage, 21 days
Procedure: (§4) Wheat and the weed were reared from seeds in the planters in a glasshouse. When the young plants had reached the 1 - to 2 - leaf stage, the wettable powders prepared in the same manner as Preparation Example 1 described above were diluted with water to a prescribed concentration and sprayed uniformly to the stalks arid leaves of the plants and on the soil surface in the planters by a spray gun so that the acrive ingredient would be applied at a rate of 5 g/ha and 50 g/ha. Then the planters were kept in the glasshouse. Twenty-one days after said treatment, the herbicidal effect of the compositions on the weeds and phytotoxicity of the crops were observed and evaluated according to the following ratings.

Wheat = tested on: Wheat; parameters: key: 0: no inhibition; less than 31%; 2: 31 - 50%; 3: 51 - 70%; 4: 71 - 90%; 5: 91 - 100%; conditions: 1 - to 2 - leaf stage, 21 days
Procedure: as §4

Compound: CC=NNc1ccc(C(=O)OC)c(S(=O)(=O)NC(=O)Nc2nc(OC)nc(OC)n2)c1 [Compound I-1]
- Growth inhibition rate (Amaranthus retroflexus [1]; 0.25 ppm): 3 (51 - 70%)
- Growth inhibition rate (Amaranthus retroflexus [1]; 2.5 ppm): 5 (91 - 100%)
- Growth inhibition rate (Bidens pilosa [2]; 0.25 ppm): 3 (51 - 70%)
- Growth inhibition rate (Bidens pilosa [2]; 2.5 ppm): 4 (71 - 90%)
- Growth inhibition rate (Cyperus iria; 0.25 ppm): 2 (31 - 50%)
- Growth inhibition rate (Cyperus iria; 2.5 ppm): 4 (71 - 90%)
- Growth inhibition rate (Echinochloa crus-galli; 0.25 ppm): 2 (31 - 50%)
- Growth inhibition rate (Echinochloa crus-galli; 2.5 ppm): 3 (51 - 70%)
- Growth inhibition rate (Matricaria chamomilla [3]; 0.25 ppm): 2 (31 - 50%)
- Growth inhibition rate (Matricaria chamomilla [3]; 2.5 ppm): 4 (71 - 90%)
- Growth inhibition rate (Setaria viridis [4]; 0.25 ppm): 3 (51 - 70%)
- Growth inhibition rate (Setaria viridis [4]; 2.5 ppm): 4 (71 - 90%)
- Growth inhibition rate (Solanum nigrum [5]; 0.25 ppm): 2 (31 - 50%)
- Growth inhibition rate (Solanum nigrum [5]; 2.5 ppm): 3 (51 - 70%)
- Herbicidal activity (Abutilon theophrasti): 5 (91 - 100% of total kill)
- Herbicidal activity (Amaranthus retroflexus [6]): 5 (91 - 100% of total kill)
- Herbicidal activity (Avena fatua): 2 (31 - 50% of total kill)
- Herbicidal activity (Bidens pilosa [7]): 5 (91 - 100% of total kill)
- Herbicidal activity (Cassia obtusifolia): 5 (91 - 100% of total kill)
- Herbicidal activity (Convolvulus arvensis): 5 (91 - 100% of total kill)
- Herbicidal activity (Digitaria adscendens): 4 (71 - 90% of total kill)
- Herbicidal activity (Echinochloa frumentaceum): 3 (51 - 70% of total kill)
- Herbicidal activity (Matricaria chamomilla [8]): 5 (91 - 100% of total kill)
- Herbicidal activity (Setaria viridis [9]): 3 (51 - 70% of total kill)
- Herbicidal activity (Sinapis arvensis): 5 (91 - 100% of total kill)
- Herbicidal activity (Solanum nigrum [10]): 5 (91 - 100% of total kill)
- Herbicidal activity (Stellaria media): 5 (91 - 100% of total kill)
- Growth inhibition rate (herbicidal effect) (Galium aparine; 5 g/ha post-emergence spray): 5 (91 - 100%)
- Growth inhibition rate (herbicidal effect) (Galium aparine; 50 g/ha post-emergence spray): 5 (91 - 100%)
- Growth inhibition rate (phytotoxicity of the crops) (Wheat; 5 g/ha post-emergence spray): 0
- Growth inhibition rate (phytotoxicity of the crops) (Wheat; 50 g/ha post-emergence spray): 0
